For 19 compounds, T/C results are on record in PubChem BioAssay AID296 (DTP/NCI, 2004).

This experiment relates to MX-1 breast xenograft, nude mice, tumor weight T/C. Briefly: NCI In Vivo Anticancer Drug Screen. Data for tumor model Human Mammary Carcinoma MX-1 Xenograft (intrarenal inoculation) in NU/NU Swiss (nude) mice. The note with it: endpoint: mean tumor weight change, higher = larger tumour. Summed up: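 Antitumour effect measured in vivo against vehicle controls, expressed as T/C.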
A general note: Xenograft models place foreign cells or tissue in a host animal.

Setting [1] is: dose: 300.0 mg/kg/injection, schedule: Q04DX003 (sc), vehicle: Klucel (hydroxypropylcellulose) (HPC).
Setting [2] is: dose: 600.0 mg/kg/injection, schedule: Q04DX003 (sc), vehicle: Klucel (hydroxypropylcellulose) (HPC).
[3] abbreviates: dose: 1200.0 mg/kg/injection, schedule: Q04DX003 (sc), vehicle: Klucel (hydroxypropylcellulose) (HPC).

The structures appear in SMILES notation. Records with an inconclusive call do not appear. *1 amine or outer side, *2 acyl side, *3 side chain or, on linkers, in order; H or OH if unused. Where a SMILES comes first, the peptide text is derived from it. Bridges are numbered along the chain shown (N, C = ends). Roman numbers before positions name the chains, in order. [ ]: non-standard residue; d: D form. Actinocin(1to9) = Cc1c2oc3c(C)ccc(C(=O)[*:2])c3nc-2c(C(=O)[*:1])c(N)c1=O; NMeV = CN[CH](C(=O)O)C(C)C; Aze = O=C(O)[CH]1CCN1; Sar = CNCC(=O)O

For the compound `COc1cc(OC)c(OC)cc1/C=C\c1ccnc2ccccc12`, the T/C under setting [1] is 85 % of control, the T/C under setting [2] is 110 % of control and the T/C under setting [3] was 99 % of control.

Regarding `C=C1N(C)c2ccccc2C1(C)C`, the T/C runs as follows: (dose: 25.0 mg/kg/injection, schedule: Q04DX003 (sc), vehicle: saline with Tween-80) 100 % of control; (dose: 50.0 mg/kg/injection, schedule: Q04DX003 (sc), vehicle: saline with Tween-80) 75 % of control.

For `[CH3][Sn]([CH3])([Cl])[S]CCN`, the T/C is, setting by setting: (dose: 18.75 mg/kg/injection, schedule: Q04DX003 (sc), vehicle: suspension in saline) 77 % of control; (dose: 75.0 mg/kg/injection, schedule: Q04DX003 (sc), vehicle: suspension in saline) 157 % of control.

For `CC(=O)/C(=C\c1ccc(Cl)c(Cl)c1)C(=O)CCN(C)C`, the T/C by setting is: (dose: 25.0 mg/kg/injection, schedule: Q04DX003 (ip), vehicle: saline) 166 % of control; (dose: 50.0 mg/kg/injection, schedule: Q04DX003 (ip), vehicle: saline) 98 % of control; (dose: 100.0 mg/kg/injection, schedule: Q04DX003 (ip), vehicle: saline) 83 % of control.

For the compound `NC(=O)c1cc(Cl)nc2nc(Cl)nc(N)c12`, the T/C is, setting by setting: (dose: 150.0 mg/kg/injection, schedule: Q04DX003 (ip), vehicle: saline with Tween-80) 112 % of control; (dose: 300.0 mg/kg/injection, schedule: Q04DX003 (ip), vehicle: saline with Tween-80) 108 % of control; (dose: 600.0 mg/kg/injection, schedule: Q04DX003 (ip), vehicle: saline with Tween-80) 90 % of control; (dose: 1200.0 mg/kg/injection, schedule: Q04DX003 (ip), vehicle: saline with Tween-80) 93 % of control.

Take `CN(C)C(=O)SC1=C(c2c(Cl)cccc2Cl)C(=O)c2ccccc21`: the T/C is 76 % of control under setting [1]; 65 % of control under setting [2]; 57 % of control under setting [3]; 67 % of control (dose: 2400.0 mg/kg/injection, schedule: Q04DX003 (sc), vehicle: Klucel (hydroxypropylcellulose) (HPC)).

Turning to `COc1cccc2c1C(=O)c1c(O)c3c(c(O)c1C2=O)C[C@@](O)(/C(CO)=N/NC(=O)c1ccc(Cl)c(Cl)c1)C[C@@H]3OC1CC(N)C(O)C(C)O1` (some centres not stated), where the note is “dose: 8.0 mg/kg/injection, schedule: Q01DX010 (sc), vehicle: water”, the T/C was 42 % of control.

Consider `CS(=O)(=O)OCCCCOS(C)(=O)=O`, for which the T/C reads like this: (dose: 6.25 mg/kg/injection, schedule: Q01DX010 (sc), vehicle: saline with Tween-80) 114 % of control; (dose: 12.5 mg/kg/injection, schedule: Q01DX010 (sc), vehicle: saline with Tween-80) 68 % of control; (dose: 25.0 mg/kg/injection, schedule: Q01DX010 (sc), vehicle: saline with Tween-80) 49 % of control.

As to `COc1ccc2cc1Oc1ccc(cc1)C[C@H]1c3cc(c(OC)cc3CCN1C)Oc1c(OC)c(OC)cc3c1[C@H](C2)N(C)CC3`, the T/C reads like this: (dose: 100.0 mg/kg/injection, schedule: Q01DX010 (sc), vehicle: saline with Tween-80) 115 % of control; (dose: 200.0 mg/kg/injection, schedule: Q01DX010 (sc), vehicle: saline with Tween-80) 42 % of control; (dose: 400.0 mg/kg/injection, schedule: Q01DX010 (sc), vehicle: saline with Tween-80) 83 % of control; (dose: 800.0 mg/kg/injection, schedule: Q01DX010 (sc), vehicle: saline with Tween-80) 44 % of control.

On to `Cc1cc(N2C(=O)CCSC2=S)ccc1Cl`, for which the T/C is 169 % of control (dose: 150.0 mg/kg/injection, schedule: Q04DX003 (sc), vehicle: Klucel (hydroxypropylcellulose) (HPC)); 90 % of control under setting [1]; 63 % of control under setting [2]; 96 % of control under setting [3].

On to `Cc1ccc(NN=O)nc1`, for which the T/C by setting is: (dose: 18.7 mg/kg/injection, schedule: Q04DX003 (ip), vehicle: water) 16 % of control; (dose: 37.5 mg/kg/injection, schedule: Q04DX003 (ip), vehicle: water) 8 % of control.

As to `Cc1c2oc3c(C)ccc(C(=O)NC4C(=O)NC(C(C)C)C(=O)N5CCCC5C(=O)N(C)CC(=O)N(C)C(C(C)C)C(=O)OC4C)c3nc-2c(C(=O)NC2C(=O)NC(C(C)C)C(=O)N3CCC3C(=O)N(C)CC(=O)N(C)C(C(C)C)C(=O)OC2C)c(N)c1=O` (configuration not stated) (I: TV[Aze][Sar][NMeV] / II: TVP[Sar][NMeV]; ester I:1-I:C, II:1-II:C; linker I:N-II:N via Actinocin(1to9); configuration not given here), the T/C reads like this: (dose: 0.25 mg/kg/injection, schedule: Q04DX003 (sc), vehicle: saline + alcohol) 53 % of control; (dose: 0.5 mg/kg/injection, schedule: Q04DX003 (sc), vehicle: saline + alcohol) 12 % of control; (dose: 0.5 mg/kg/injection, schedule: Q04DX003 (sc), vehicle: saline) 112 % of control; (dose: 1.0 mg/kg/injection, schedule: Q04DX003 (sc), vehicle: saline + alcohol) -80 % of control; (dose: 1.0 mg/kg/injection, schedule: Q04DX003 (sc), vehicle: saline) 47 % of control; (dose: 2.0 mg/kg/injection, schedule: Q04DX003 (sc), vehicle: saline) 40 % of control.

Turning to `C1=CCOCOC1`, the T/C is, setting by setting: (dose: 150.0 mg/kg/injection, schedule: Q04DX003 (sc), vehicle: saline with Tween-80) 71 % of control; (dose: 300.0 mg/kg/injection, schedule: Q04DX003 (sc), vehicle: saline with Tween-80) 70 % of control.

With `COC1=C(NC(C)=O)C(=O)c2nc(-c3nc(C(=O)O)c(C)c(-c4ccc(OC)c(OC)c4O)c3N)ccc2C1=O`, the T/C was 118 % of control (dose: 50.0 mg/kg/injection, schedule: Q04DX003 (sc), vehicle: Klucel (hydroxypropylcellulose) (HPC)) and 47 % of control (dose: 100.0 mg/kg/injection, schedule: Q04DX003 (sc), vehicle: Klucel (hydroxypropylcellulose) (HPC)).

For `c1ccc2c(NCCCCCCCCNc3c4ccccc4nc4ccccc34)c3ccccc3nc2c1`, the T/C reads like this: (dose: 10.0 mg/kg/injection, schedule: Q01DX010 (sc), vehicle: Klucel (hydroxypropylcellulose) (HPC)) 93 % of control; (dose: 20.0 mg/kg/injection, schedule: Q01DX010 (sc), vehicle: Klucel (hydroxypropylcellulose) (HPC)) 16 % of control; (dose: 40.0 mg/kg/injection, schedule: Q01DX010 (sc), vehicle: Klucel (hydroxypropylcellulose) (HPC)) 93 % of control; (dose: 80.0 mg/kg/injection, schedule: Q01DX010 (sc), vehicle: Klucel (hydroxypropylcellulose) (HPC)) 58 % of control.

For the compound `CN(C(=S)S(=O)(=O)C12CC3CC(CC(C3)C1)C2)c1ccccc1`, the T/C (dose: 800.0 mg/kg/injection, schedule: Q04DX003 (sc), vehicle: Klucel (hydroxypropylcellulose) (HPC)) was 204 % of control.

As to `COc1cc2cc3c4cc(OC)c(OC)cc4cc[n+]3c(C)c2cc1OC` (tested in a mixture with another compound), the T/C is 79 % of control (dose: 75.0 mg/kg/injection, schedule: Q04DX003 (sc), vehicle: saline) and 60 % of control (dose: 150.0 mg/kg/injection, schedule: Q04DX003 (sc), vehicle: saline).

Consider `CC/C(=C(\c1ccccc1)c1ccc(OCCN(C)C)cc1)c1ccccc1`, for which the T/C (dose: 25.0 mg/kg/injection, schedule: Q01DX010 (sc), vehicle: Klucel (hydroxypropylcellulose) (HPC)) was 171 % of control; the T/C (dose: 50.0 mg/kg/injection, schedule: Q01DX010 (sc), vehicle: Klucel (hydroxypropylcellulose) (HPC)) is 178 % of control; the T/C (dose: 100.0 mg/kg/injection, schedule: Q01DX010 (sc), vehicle: Klucel (hydroxypropylcellulose) (HPC)) is 83 % of control; the T/C (dose: 100.0 mg/kg/injection, schedule: Q04DX003 (sc), vehicle: suspension in saline) is 61 % of control; the T/C (dose: 200.0 mg/kg/injection, schedule: Q01DX010 (sc), vehicle: Klucel (hydroxypropylcellulose) (HPC)) is 240 % of control; the T/C (dose: 200.0 mg/kg/injection, schedule: Q04DX003 (sc), vehicle: suspension in saline) is 68 % of control. Further, the T/C is 89 % of control (dose: 400.0 mg/kg/injection, schedule: Q04DX003 (sc), vehicle: suspension in saline) and 73 % of control (dose: 800.0 mg/kg/injection, schedule: Q04DX003 (sc), vehicle: suspension in saline).

For the compound `Cc1ccc(C(=O)NC2C(=O)NC(C(C)C)C(=O)N3CCCC3C(=O)N(C)CC(=O)N(C)C(C(C)C)C(=O)OC2C)c2c1Oc1c(c(C(=O)NC3C(=O)NC(C(C)C)C(=O)N4CCCC4C(=O)N(C)CC(=O)N(C)C(C(C)C)C(=O)OC3C)c3nc(-c4ccccc4)c(=O)oc3c1C)N2` (configuration not stated), the T/C reads like this: (dose: 0.25 mg/kg/injection, schedule: Q04DX003 (ip), vehicle: water) 77 % of control; (dose: 0.5 mg/kg/injection, schedule: Q04DX003 (ip), vehicle: water) 75 % of control; (dose: 1.0 mg/kg/injection, schedule: Q04DX003 (ip), vehicle: water) 49 % of control; (dose: 2.0 mg/kg/injection, schedule: Q04DX003 (ip), vehicle: water) 51 % of control; (dose: 4.0 mg/kg/injection, schedule: Q04DX003 (ip), vehicle: water) 12 % of control.
